Results: US9102701B2, “17-hydroxy-17-pentafluoroethyl-estra-4,9(10)-diene-11-ethynylphenyl derivatives, methods for the production thereof and use thereof for treating diseases” (Bayer Intellectual Property GmbH, priority 2009, dated 2015)

How the values were obtained:
[1] = biological target: T1, human progesterone receptor A (Homo sapiens, UniProt P06401); experiment: Progesterone receptor-antagonistic action in stably transfected SK-N-MC cells, PR-A, MMTV-LUC reporter; format: cell-based; settings: read-out: IC50 PR-A
T1 construct: expressed in transfected cells; host or cells: SK-N-MC human neuroblastoma cells, stably transfected with pRChPR-A-neo and pMMTV-LUC
T1 sequence (P06401 1-769 isoform P06401-2): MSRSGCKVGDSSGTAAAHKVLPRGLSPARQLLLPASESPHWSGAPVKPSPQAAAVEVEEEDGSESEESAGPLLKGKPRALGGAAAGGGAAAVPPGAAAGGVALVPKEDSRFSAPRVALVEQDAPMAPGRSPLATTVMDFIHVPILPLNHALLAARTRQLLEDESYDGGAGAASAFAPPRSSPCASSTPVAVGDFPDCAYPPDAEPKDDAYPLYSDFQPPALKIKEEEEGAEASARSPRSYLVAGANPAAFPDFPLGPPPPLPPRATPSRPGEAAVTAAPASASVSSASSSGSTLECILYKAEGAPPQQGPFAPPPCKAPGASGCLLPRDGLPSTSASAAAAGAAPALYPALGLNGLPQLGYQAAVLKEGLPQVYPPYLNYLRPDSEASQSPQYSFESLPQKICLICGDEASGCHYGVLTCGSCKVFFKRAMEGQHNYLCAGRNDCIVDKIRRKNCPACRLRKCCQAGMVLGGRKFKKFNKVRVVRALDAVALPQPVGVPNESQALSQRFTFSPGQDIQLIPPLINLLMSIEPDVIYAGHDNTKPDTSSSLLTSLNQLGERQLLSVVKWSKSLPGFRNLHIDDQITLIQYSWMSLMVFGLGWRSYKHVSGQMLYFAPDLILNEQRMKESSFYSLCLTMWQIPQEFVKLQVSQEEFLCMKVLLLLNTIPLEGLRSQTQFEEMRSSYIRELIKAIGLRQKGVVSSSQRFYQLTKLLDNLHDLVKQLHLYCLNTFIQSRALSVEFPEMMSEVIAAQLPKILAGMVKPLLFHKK
Description: (§1) Determination of Progesterone Receptor-Antagonistic Action in Stable Transfectants of Human Neuroblastoma Cells (SK-N-MC Cells) with the Human Progesterone a or Progesterone B Receptor and an MN-LUC Reporter Construct
(§2) SK-N-MC cells (human neuroblastoma cells) which have been stably transfected with plasmids expressing the human progesterone receptor B (pRChPR-B-neo) or the human progesterone receptor A (pRChPR-A-neo) and a reporter construct (pMMTV-LUC) were incubated for 24 hours either in the absence (negative control) or in the presence of ascending amounts of the particular test compound (0.01 nmol/l, 0.1 nmol/l, 1 nmol/l, 10 nmol/l, 100 nmol/l and […]), in order to determine the agonistic efficacy. As a positive control of the reporter gene induction, the cells were treated with the synthetic gestagen promegestone (0.01 nmol/l, 0.1 nmol/l, 1 nmol/l, 10 nmol/l, 100 nmol/l and […]). To determine the antagonistic activity, the cells were treated with 0.1 nmol/l promegestone and additionally with ascending amounts of the particular test compound (0.01 nmol/l, 0.1 nmol/l, 1 nmol/l, 10 nmol/l, 100 nmol/l and […]). The activity of the reporter gene LUC (LUC=luciferase) was determined in the cell lysates and measured as RLU (relative light units). All measurements are reported as % efficacy and as EC50 and IC50 concentrations.

[2] = biological target: T2, human progesterone receptor B (Homo sapiens, UniProt P06401); experiment: Progesterone receptor-antagonistic action in stably transfected SK-N-MC cells, PR-B, MMTV-LUC reporter; format: cell-based; settings: read-out: IC50 PR-B
T2 construct: expressed in transfected cells; host or cells: SK-N-MC human neuroblastoma cells, stably transfected with pRChPR-B-neo and pMMTV-LUC
T2 sequence (P06401 1-933): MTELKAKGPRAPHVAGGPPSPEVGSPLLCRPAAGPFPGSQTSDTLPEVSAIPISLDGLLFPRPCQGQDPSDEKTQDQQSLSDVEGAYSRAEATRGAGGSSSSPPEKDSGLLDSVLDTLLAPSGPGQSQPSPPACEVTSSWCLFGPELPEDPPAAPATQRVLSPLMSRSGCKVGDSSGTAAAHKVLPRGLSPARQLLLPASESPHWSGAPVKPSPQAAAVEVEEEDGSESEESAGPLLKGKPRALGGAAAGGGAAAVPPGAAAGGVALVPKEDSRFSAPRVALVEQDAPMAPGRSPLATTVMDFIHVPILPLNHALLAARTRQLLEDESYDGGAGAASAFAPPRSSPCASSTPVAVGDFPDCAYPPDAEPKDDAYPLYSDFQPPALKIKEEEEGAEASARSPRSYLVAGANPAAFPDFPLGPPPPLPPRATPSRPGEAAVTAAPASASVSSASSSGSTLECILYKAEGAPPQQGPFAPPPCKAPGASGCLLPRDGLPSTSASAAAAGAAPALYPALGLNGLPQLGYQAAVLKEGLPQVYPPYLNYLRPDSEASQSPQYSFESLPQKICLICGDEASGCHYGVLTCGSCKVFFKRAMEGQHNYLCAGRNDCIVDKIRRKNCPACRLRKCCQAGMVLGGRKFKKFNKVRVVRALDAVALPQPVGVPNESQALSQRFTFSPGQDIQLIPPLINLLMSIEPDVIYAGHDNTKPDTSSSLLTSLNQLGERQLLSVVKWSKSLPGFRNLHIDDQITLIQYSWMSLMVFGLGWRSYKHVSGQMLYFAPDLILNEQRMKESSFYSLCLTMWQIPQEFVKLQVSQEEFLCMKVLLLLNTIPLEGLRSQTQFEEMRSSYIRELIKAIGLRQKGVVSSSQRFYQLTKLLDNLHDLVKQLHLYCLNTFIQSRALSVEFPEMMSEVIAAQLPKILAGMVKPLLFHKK
Description: as §1, §2

SMILES | IC50 [1] | IC50 [2]
Cc1ccc(NC(=O)NCC#Cc2ccc([C@H]3C[C@@]4(C)[C@@H](CC[C@@]4(O)C(F)(F)C(F)(F)F)[C@@H]4CCC5=CC(=O)CCC5=C43)cc2)cc1 [Example 38, 1-{3-[4-((8S,11R,13S,14S,17S)-17-hydroxy-13-methyl-3-oxo-17-pentafluoroethyl-2,3,6,7,8,11,12,13,14,15,16,17-dodecahydro-1H-cyclopenta[a]phenanthren-11-yl)phenyl]prop-2-ynyl}-3-(4-methylphenyl)urea] | 0.2 nM | 0.3 nM
COC(=O)c1cccc(C=CC#Cc2ccc([C@H]3C[C@@]4(C)C(CC[C@@]4(O)C(F)(F)C(F)(F)F)C4CCC5=CC(=O)CCC5=C43)cc2)c1 (mixture of isomers) [Example 12, 3-{(E/Z)-4-[4-((8S,11R,13S,14S,17S)-17-hydroxy-13-methyl-3-oxo-17-pentafluoroethyl-2,3,6,7,8,11,12,13,14,15,16,17-dodecahydro-1H-cyclopenta[a]phenanthren-1′-yl)phenyl]but-1-en-3-ynyl}benzoic acid methyl ester] | 1 nM | 2 nM
CC(C)(C)c1ccc(NC(=O)NCC#Cc2ccc([C@H]3C[C@@]4(C)[C@@H](CC[C@@]4(O)C(F)(F)C(F)(F)F)[C@@H]4CCC5=CC(=O)CCC5=C43)cc2)cc1 [Example 33, 1-{3-[4-((8S,11R,13S,14S,17S)-17-hydroxy-13-methyl-3-oxo-17-pentafluoroethyl-2,3,6,7,8,11,12,13,14,15,16,17-dodecahydro-1H-cyclopenta[a]phenanthren-11-yl)phenyl]prop-2-ynyl}-3-(4-tert-butylphenyl)urea] | 0.9 nM | 0.8 nM
CCOC(=O)C=CC=CC#Cc1ccc([C@H]2C[C@@]3(C)C(CC[C@@]3(O)C(F)(F)C(F)(F)F)C3CCC4=CC(=O)CCC4=C32)cc1 (stereo partly drawn) [Example 7, 7-(2E/Z,4E/Z)-[4-((8S,11R,13S,14S,17S)-17-hydroxy-13-methyl-3-oxo-17-pentafluoroethyl-2,3,6,7,8,11,12,13,14,15,16,17-dodecahydro-1H-cyclopenta[a]phenanthren-1′-yl)phenyl]hepta-2,4-dien-6-ynoic acid ethyl ester] | 0.8 nM | 0.9 nM
C[C@]12C[C@H](c3ccc(C#CCOCC(=O)O)cc3)C3=C4CCC(=O)C=C4CCC3C1CC[C@@]2(O)C(F)(F)C(F)(F)F (stereo partly drawn) [Example 10, {3-[4-((8S,11R,13S,14S,17S)-17-hydroxy-13-methyl-3-oxo-17-pentafluoroethyl-2,3,6,7,8,11,12,13,14,15,16,17-dodecahydro-1H-cyclopenta[a]phenanthren-1′-yl)phenyl]prop-2-ynyloxy}acetic acid] | 9 nM | 10 nM
CC(C)(C)OC(=O)COCC#Cc1ccc([C@H]2C[C@@]3(C)[C@@H](CC[C@@]3(O)C(F)(F)C(F)(F)F)[C@@H]3CCC4=CC(=O)CCC4=C32)cc1 [Example 8, {3-[4-((8S,11R,13S,14S,17S)-17-hydroxy-13-methyl-3-oxo-17-pentafluoroethyl-2,3,6,7,8,11,12,13,14,15,16,17-dodecahydro-1H-cyclopenta[a]phenanthren-11-yl)phenyl]prop-2-ynyloxy}acetic acid tert-butyl ester] | 0.32 nM | 0.41 nM
CCOC(=O)CNC(=O)NCC#Cc1ccc([C@H]2C[C@@]3(C)C(CC[C@@]3(O)C(F)(F)C(F)(F)F)C3CCC4=CC(=O)CCC4=C32)cc1 (stereo partly drawn) [Example 42, (3-{3-[4-((8S,11R,13S,14S,17S)-17-hydroxy-13-methyl-3-oxo-17-pentafluoroethyl-2,3,6,7,8,11,12,13,14,15,16,17-dodecahydro-1H-cyclopenta[a]phenanthren-1′-yl)phenyl]prop-2-ynyl}ureido)acetic acid ethyl ester] | 0.7 nM | 0.8 nM

Now those with a lower IC50 [1], led by results:

IC50 [1] | IC50 [2] | SMILES
0.08 nM | 0.08 nM | CC(C)CO/N=C/C#Cc1ccc([C@H]2C[C@@]3(C)C(CC[C@@]3(O)C(F)(F)C(F)(F)F)C3CCC4=CC(=O)CCC4=C32)cc1 (mixture of isomers) [Example 26, (E/Z)-[4-((8S,11R,13S,14S,17S)-17-hydroxy-13-methyl-3-oxo-17-pentafluoroethyl-2,3,6,7,8,11,12,13,14,15,16,17-dodecahydro-1H-cyclopenta[a]phenanthren-1′-yl)phenyl]propynal O-isobutyl oxime]
0.01 nM | 0.01 nM | C=CCNC(=O)OCC#Cc1ccc([C@H]2C[C@@]3(C)C(CC[C@@]3(O)C(F)(F)C(F)(F)F)C3CCC4=CC(=O)CCC4=C32)cc1 (stereo partly drawn) [Example 44, allylcarbamic acid 3-[4-((8S,11R,13S,14S,17S)-17-hydroxy-13-methyl-3-oxo-17-pentafluoroethyl-2,3,6,7,8,11,12,13,14,15,16,17-dodecahydro-1H-cyclopenta[a]phenanthren-1′-yl)phenyl]prop-2-ynyl ester]
0.1 nM | 0.1 nM | C[C@]12C[C@H](c3ccc(C#C/C=N\OCc4ccccc4)cc3)C3=C4CCC(=O)C=C4CCC3C1CC[C@@]2(O)C(F)(F)C(F)(F)F (stereo partly drawn) [Example 24B, (Z)-[4-((8S,11R,13S,14S,17S)-17-hydroxy-13-methyl-3-oxo-17-pentafluoroethyl-2,3,6,7,8,11,12,13,14,15,16,17-dodecahydro-1H-cyclopenta[a]phenanthren-1′-yl)phenyl]propynal O-benzyl oxime]
0.01 nM | 0.03 nM | C[C@]12C[C@H](c3ccc(C#CCOC(=O)NCc4ccccc4)cc3)C3=C4CCC(=O)C=C4CCC3C1CC[C@@]2(O)C(F)(F)C(F)(F)F (stereo partly drawn) [Example 50, benzylcarbamic acid 3-[4-((8S,11R,13S,14S,17S)-17-hydroxy-13-methyl-3-oxo-17-pentafluoroethyl-2,3,6,7,8,11,12,13,14,15,16,17-dodecahydro-1H-cyclopenta[a]phenanthren-1′-yl)phenyl]prop-2-ynyl ester]
0.1 nM | 0.4 nM | CCOC(=O)c1ccc(NC(=O)NCC#Cc2ccc([C@H]3C[C@@]4(C)C(CC[C@@]4(O)C(F)(F)C(F)(F)F)C4CCC5=CC(=O)CCC5=C43)cc2)cc1 (stereo partly drawn) [Example 37, 4-(3-{3-[4-((8S,11R,13S,14S,17S)-17-hydroxy-13-methyl-3-oxo-17-pentafluoroethyl-2,3,6,7,8,11,12,13,14,15,16,17-dodecahydro-1H-cyclopenta[a]phenanthren-1′-yl)phenyl]prop-2-ynyl}ureido)benzoic acid ethyl ester]
